ChEMBL document CHEMBL1649274, “Mutational upregulation of a resistance-nodulation-cell division-type multidrug efflux pump, SdeAB, upon exposure to a biocide, cetylpyridinium chloride, and antibiotic resistance in Serratia marcescens” (Antimicrob Agents Chemother, 2009)
Values after ≈ are worked out from the molar mass of the structure shown.

What was measured:
Serratia marcescens [1] = test: Antimicrobial activity against cetylpyridinium chloride-resistant Serratia marcescens HMS011 harboring plasmid STV28 expressing sdeB gene by broth dilution method; assay type: functional
Serratia marcescens [2] = test: Antimicrobial activity against Serratia marcescens ATCC 13880 harboring plasmid STV29 by broth dilution method; assay type: functional
Serratia marcescens [3] = test: Antimicrobial activity against cetylpyridinium chloride-sensitive Serratia marcescens 71 by broth dilution method; assay type: functional
Serratia marcescens [4] = test: Antimicrobial activity against cetylpyridinium chloride-resistant Serratia marcescens 01 by broth dilution method; assay type: functional
Serratia marcescens [5] = test: Antimicrobial activity against cetylpyridinium chloride-resistant Serratia marcescens 01 harboring plasmid STV29 by broth dilution method; assay type: functional
Serratia marcescens [6] = test: Antimicrobial activity against cetylpyridinium chloride-resistant Serratia marcescens 011 harboring plasmid STV28 expressing sdeB gene by broth dilution method; assay type: functional
Serratia marcescens [7] = test: microbe, parasite or virus in culture; assay type: functional; conditions: ATCC 13880
Description: (§1) Antimicrobial activity against Serratia marcescens ATCC 13880 by broth dilution method

Serratia marcescens [8] = test: Antimicrobial activity against cetylpyridinium chloride-resistant Serratia marcescens HMS011 by broth dilution method; assay type: functional
Serratia marcescens [9] = test: Antimicrobial activity against cetylpyridinium chloride-sensitive Serratia marcescens 79 by broth dilution method; assay type: functional
Serratia marcescens [10] = test: Antimicrobial activity against cetylpyridinium chloride-resistant Serratia marcescens 011 by broth dilution method; assay type: functional
Serratia marcescens [11] = test: Antimicrobial activity against cetylpyridinium chloride-sensitive Serratia marcescens 71 harboring plasmid STV29 expressing hasF gene by broth dilution method; assay type: functional
Serratia marcescens [12] = test: Antimicrobial activity against cetylpyridinium chloride-sensitive Serratia marcescens 79 harboring plasmid STV29 expressing hasF gene by broth dilution method; assay type: functional
Serratia marcescens [13] = test: Antimicrobial activity against cetylpyridinium chloride-sensitive Serratia marcescens 79 harboring plasmid STV29 by broth dilution method; assay type: functional
Serratia marcescens [14] = test: Antimicrobial activity against cetylpyridinium chloride-sensitive Serratia marcescens 71 harboring plasmid STV29 by broth dilution method; assay type: functional
Serratia marcescens [15] = conditions: 01
Serratia marcescens [16] = conditions: ATCC 13880
Description: as §1

Serratia marcescens [17] = conditions: 71
Serratia marcescens [18] = conditions: 79
Serratia marcescens [19] = test: Cellular uptake at cetylpyridinium chloride-resistant Serratia marcescens 01 at 50 ug/ml after 60 mins by spectrofluorometry; assay type: ADME, organism-based; conditions: in vivo, 1 h
Serratia marcescens [20] = test: Cellular uptake at Serratia marcescens ATCC 13880 at 50 ug/ml after 60 mins by spectrofluorometry in presence of […] proteon conductor CCCP; assay type: ADME, organism-based; conditions: in vivo, 1 h
Serratia marcescens [21] = test: Cellular uptake at cetylpyridinium chloride-resistant Serratia marcescens 01 at 50 ug/ml after 60 mins by spectrofluorometry in presence of […] proteon conductor CCCP; assay type: ADME, organism-based; conditions: in vivo, 1 h
Serratia marcescens [22] = test: Cellular uptake at Serratia marcescens ATCC 13880 at 50 ug/ml after 60 mins by spectrofluorometry; assay type: ADME, organism-based; conditions: in vivo, 1 h

Row | Compound | MIC (Serratia marcescens [1]) [µg/mL] | MIC (Serratia marcescens [2]) [µg/mL] | MIC (Serratia marcescens [3]) [µg/mL] | MIC (Serratia marcescens [4]) [µg/mL] | MIC (Serratia marcescens [5]) [µg/mL] | MIC (Serratia marcescens [6]) [µg/mL] | MIC (Serratia marcescens [7]) [µg/mL] | MIC (Serratia marcescens [8]) [µg/mL] | MIC (Serratia marcescens [9]) [µg/mL] | MIC (Serratia marcescens [10]) [µg/mL] | MIC (Serratia marcescens [11]) [µg/mL] | MIC (Serratia marcescens [12]) [µg/mL] | MIC (Serratia marcescens [13]) [µg/mL] | MIC (Serratia marcescens [14]) [µg/mL] | also measured
1 | NC[C@H]1O[C@H](O[C@H]2[C@H](O)[C@@H](O[C@H]3O[C@H](CO)[C@@H](O)[C@H](N)[C@H]3O)[C@H](N)C[C@@H]2N)[C@H](O)[C@@H](O)[C@@H]1O [KANAMYCIN] | 1.56 (≈ 3.22 µM) | 1.56 (≈ 3.22 µM) | > 400 | 1.56 (≈ 3.22 µM) | 1.56 (≈ 3.22 µM) | 1.56 (≈ 3.22 µM) | 1.56 (≈ 3.22 µM) | 1.56 (≈ 3.22 µM) | > 400 | 1.56 (≈ 3.22 µM) | – | – | – | – | –
2 | CCn1cc(C(=O)O)c(=O)c2ccc(C)nc21 [NALIDIXIC ACID] | – | – | 12.5 (≈ 53.8 µM) | 12.5 (≈ 53.8 µM) | – | – | 12.5 (≈ 53.8 µM) | – | 12.5 (≈ 53.8 µM) | – | – | – | – | – | –
3 | CCn1cc(C(=O)O)c(=O)c2cc(F)c(N3CCNCC3)nc21 [ENOXACIN] | – | – | 0.1 (≈ 0.312 µM) | 3.13 (≈ 9.77 µM) | – | – | 0.2 (≈ 0.624 µM) | – | 0.1 (≈ 0.312 µM) | – | – | – | – | – | –
4 | CCn1cc(C(=O)O)c(=O)c2cc(F)c(N3CCNC(C)C3)c(F)c21 (stereo not given) [LOMEFLOXACIN] | 0.2 (≈ 0.569 µM) | 0.2 (≈ 0.569 µM) | 0.05 (≈ 0.142 µM) | 1.56 (≈ 4.44 µM) | 1.56 (≈ 4.44 µM) | 1.56 (≈ 4.44 µM) | 0.2 (≈ 0.569 µM) | 0.2 (≈ 0.569 µM) | 0.05 (≈ 0.142 µM) | 0.78 (≈ 2.22 µM) | 1.56 (≈ 4.44 µM) | 1.56 (≈ 4.44 µM) | 0.05 (≈ 0.142 µM) | 0.05 (≈ 0.142 µM) | –
5 | GENTAMICIN | – | – | – | – | – | – | – | – | – | – | – | – | – | – | MIC (Serratia marcescens [15]): 1.56 µg/mL; MIC (Serratia marcescens [16]): 1.56 µg/mL; MIC (Serratia marcescens [17]): 1.56 µg/mL; MIC (Serratia marcescens [18]): 1.56 µg/mL
6 | CCCCCCCCCCCC[n+]1ccccc1.[I-] | – | – | 12.5 | 100 | – | – | 100 | – | 6.25 | – | – | – | – | – | –
7 | CCn1cc(C(=O)O)c(=O)c2cnc(N3CCNCC3)nc21 [PIPEMIDIC ACID] | 3.13 (≈ 10.3 µM) | 3.13 (≈ 10.3 µM) | 0.78 (≈ 2.57 µM) | 25 (≈ 82.4 µM) | 25 (≈ 82.4 µM) | 25 (≈ 82.4 µM) | 3.13 (≈ 10.3 µM) | 3.13 (≈ 10.3 µM) | 0.78 (≈ 2.57 µM) | 6.25 (≈ 20.6 µM) | 12.5 (≈ 41.2 µM) | 12.5 (≈ 41.2 µM) | 0.78 (≈ 2.57 µM) | 0.78 (≈ 2.57 µM) | –
8 | CC1(C)S[C@@H]2[C@H](NC(=O)C(C(=O)O)c3ccccc3)C(=O)N2[C@H]1C(=O)O (stereo not given in full) [CARBENICILLIN] | 6.25 (≈ 16.5 µM) | 6.25 (≈ 16.5 µM) | 3.13 (≈ 8.27 µM) | 3.13 (≈ 8.27 µM) | 3.13 (≈ 8.27 µM) | 3.13 (≈ 8.27 µM) | 6.25 (≈ 16.5 µM) | 6.25 (≈ 16.5 µM) | 3.13 (≈ 8.27 µM) | 3.13 (≈ 8.27 µM) | 3.13 (≈ 8.27 µM) | 3.13 (≈ 8.27 µM) | 3.13 (≈ 8.27 µM) | 3.13 (≈ 8.27 µM) | –
9 | N=C(NCCCCCCNC(=N)NC(=N)Nc1ccc(Cl)cc1)NC(=N)Nc1ccc(Cl)cc1.O=C(O)[C@H](O)[C@@H](O)[C@H](O)[C@H](O)CO | – | – | 3.13 | 100 | – | – | 25 | – | 3.13 | – | – | – | – | – | –
10 | CC1COc2c(N3CCN(C)CC3)c(F)cc3c(=O)c(C(=O)O)cn1c23 (stereo not given) [OFLOXACIN] | – | – | 0.05 (≈ 0.138 µM) | 3.13 (≈ 8.66 µM) | – | – | 0.1 (≈ 0.277 µM) | – | 0.05 (≈ 0.138 µM) | – | – | – | – | – | –
11 | CN(C)[C@@H]1C(O)=C(C(N)=O)C(=O)[C@@]2(O)C(O)=C3C(=O)c4c(O)cccc4[C@@](C)(O)[C@H]3C[C@@H]12 [TETRACYCLINE] | 50 (≈ 113 µM) | 50 (≈ 113 µM) | 3.13 (≈ 7.04 µM) | 100 (≈ 225 µM) | 100 (≈ 225 µM) | 100 (≈ 225 µM) | 50 (≈ 113 µM) | 50 (≈ 113 µM) | 3.13 (≈ 7.04 µM) | 100 (≈ 225 µM) | 50 (≈ 113 µM) | 50 (≈ 113 µM) | 3.13 (≈ 7.04 µM) | 3.13 (≈ 7.04 µM) | –
12 | O=C(N[C@H](CO)[C@H](O)c1ccc([N+](=O)[O-])cc1)C(Cl)Cl [CHLORAMPHENICOL] | > 400 | > 400 | 3.13 (≈ 9.69 µM) | 100 (≈ 309 µM) | > 400 | > 400 | 12.5 (≈ 38.7 µM) | 12.5 (≈ 38.7 µM) | 3.13 (≈ 9.69 µM) | 25 (≈ 77.4 µM) | > 400 | > 400 | > 400 | > 400 | –
13 | CN[C@@H]1[C@H](O[C@H]2[C@H](O[C@H]3[C@H](O)[C@@H](O)[C@H](N=C(N)N)[C@@H](O)[C@@H]3N=C(N)N)O[C@@H](C)[C@]2(O)C=O)O[C@@H](CO)[C@H](O)[C@H]1O [STREPTOMYCIN] | – | – | 1.56 (≈ 2.68 µM) | 3.13 (≈ 5.38 µM) | – | – | 3.13 (≈ 5.38 µM) | – | 1.56 (≈ 2.68 µM) | – | – | – | – | – | –
14 | CC1(C)S[C@@H]2[C@H](NC(=O)[C@H](N)c3ccccc3)C(=O)N2[C@H]1C(=O)O [AMPICILLIN] | – | – | 6.25 (≈ 17.9 µM) | 6.25 (≈ 17.9 µM) | – | – | 100 (≈ 286 µM) | – | 6.25 (≈ 17.9 µM) | – | – | – | – | – | –
15 | CCn1cc(C(=O)O)c(=O)c2cc(F)c(N3CCNCC3)cc21 [NORFLOXACIN] | 0.2 (≈ 0.626 µM) | 0.2 (≈ 0.626 µM) | 0.05 (≈ 0.157 µM) | 3.13 (≈ 9.8 µM) | 3.13 (≈ 9.8 µM) | 3.13 (≈ 9.8 µM) | 0.2 (≈ 0.626 µM) | 0.2 (≈ 0.626 µM) | 0.05 (≈ 0.157 µM) | 0.78 (≈ 2.44 µM) | 3.13 (≈ 9.8 µM) | 3.13 (≈ 9.8 µM) | 0.05 (≈ 0.157 µM) | 0.05 (≈ 0.157 µM) | Drug uptake (Serratia marcescens [19]): 10 a.u.; Drug uptake (Serratia marcescens [20]): 250 a.u.; Drug uptake (Serratia marcescens [21]): 250 a.u.; Drug uptake (Serratia marcescens [22]): 60 a.u.
